{"source": "the NIST ThermoML archive (doi:10.1021/je0602925)", "assay": "activity coefficient (dimensionless); of the first substance listed, at infinite dilution; xn = mol fraction of the nth substance listed", "conditions": "Liquid, Chromatography, x1 = 0", "note": "Numbers after ± are expanded uncertainties."}
{"smiles": "C=CCCCC", "note": "[hex-1-ene] + CCCCCCCCCCCCCC[P+](CCCCCC)(CCCCCC)CCCCCC.[Cl-]", "values": [{"measurement": "activity coefficient", "setting": "308.15 K", "result": "0.477 ± 0.037"}, {"measurement": "activity coefficient", "setting": "318.15 K", "result": "0.471 ± 0.037"}, {"measurement": "activity coefficient", "setting": "328.15 K", "result": "0.468 ± 0.037"}]}
